{"source": "patent US5529984A", "about": "“Endoparasiticidal compositions based on open-chain hexadepsipeptides” (Bayer Aktiengesellschaft, priority 1993, dated 1996)", "tested_on": "Haemonchus contortus", "assay": "In vivo nematode test Haemonchus contortus/sheep", "settings": "sheep infected experimentally with Haemonchus contortus; pure active compound orally and/or intravenously; dose after which egg excretion with the faeces has stopped completely", "protocol": "Haemonchus contortus/sheep\nSheep infected experimentally with Haemonchus contortus were treated after the prepatency period of the parasite had elapsed. The active compounds were administered orally and/or intravenously in the form of the pure active compound.\nThe degree of effectiveness is determined by quantitatively determining the nematode eggs excreted with the faeces before and after the treatment.\nIf egg excretion has stopped completely after the treatment, this means that the nematodes were aborted or are damaged to such an extent that they no longer produce eggs (Dosis effective).\nActive compounds which have been tested and effective dosage rates (Dosis effective) can be seen from the table which follows: […]"}
{"compound": "CCC(C)C(C(=O)OC(C)C(=O)N(C)C(C(=O)OC(C)C(=O)N(C)C(C(=O)OC(C)C(=O)O)C(C)CC)C(C)CC)N(C)C(=O)OCc1ccccc1", "note": "[Example 3, N-Benzyloxycarbonyl-N-methyl-L-isoleucyl-D -lactyl-N-methyl-L-isoleucyl-D-lactyl-N-methyl-n-isoleucyl-D-lactic acid]", "values": [{"measurement": "Dosis effective", "result": 10, "unit": "mg/kg"}]}
